Results published in patent US20240368092A1, “2,4-Dihydro-3H-1,2,4-Triazol-3-One P2X7 Antagonists” (Breye Therapeutics ApS, priority 2021, published 2024).

Experiments:
Assay type in all cases: cell-based
ratP2X7 = biological target: T1, ratP2X7 (Rattus norvegicus, UniProt Q64663); experiment: P2X7 channel calcium-influx assay (Fluo-8, FLIPR TETRA), rat P2X7; conditions: HEK-293 cells stably transfected with P2X7; Bz-ATP at EC80; low divalent cation buffer; read-out: ratP2X7 (activity range)
T1 construct: expressed in transfected cells; host or cells: HEK-293
T1 sequence (Q64663 1-595): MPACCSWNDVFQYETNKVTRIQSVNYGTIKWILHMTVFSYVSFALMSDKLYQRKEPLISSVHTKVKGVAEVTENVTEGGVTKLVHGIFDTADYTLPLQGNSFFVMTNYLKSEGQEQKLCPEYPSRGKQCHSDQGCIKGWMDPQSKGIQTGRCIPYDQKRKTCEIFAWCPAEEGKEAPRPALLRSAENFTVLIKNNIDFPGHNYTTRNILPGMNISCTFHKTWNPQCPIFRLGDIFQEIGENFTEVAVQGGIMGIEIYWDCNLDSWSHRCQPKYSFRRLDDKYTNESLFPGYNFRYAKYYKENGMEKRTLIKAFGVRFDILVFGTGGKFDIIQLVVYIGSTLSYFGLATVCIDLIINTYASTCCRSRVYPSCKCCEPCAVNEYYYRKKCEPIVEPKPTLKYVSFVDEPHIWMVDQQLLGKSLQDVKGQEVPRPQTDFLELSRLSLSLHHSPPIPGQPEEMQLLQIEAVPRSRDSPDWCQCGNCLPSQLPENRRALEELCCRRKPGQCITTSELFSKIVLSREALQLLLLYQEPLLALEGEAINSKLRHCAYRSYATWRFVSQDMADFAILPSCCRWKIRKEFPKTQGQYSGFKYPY
Method: (§1) Extracellular binding of Bz-ATP to P2X7 receptor opens the channel and allows Ca^2+ influx into the cells. This Ca^2+ entry was measured in HEK-293 cells stably transfected with P2X7 receptor using Screen Quest™ Fluo-8 No Wash Calcium Assay Kit (AAt Bioquest®, cat. 36316). Once inside the cell, the lipophilic blocking groups of Fluo-8 are cleaved by non-specific cell esterases, resulting in a negatively-charged fluorescent dye that stays inside cells. Its fluorescence increases upon binding to calcium. When HEK-293/P2X7 cells are stimulated with Bz-ATP, Ca^2+ enters the cells and the fluorescence of Fluo-8 NW increases. The dye has an absorption spectrum compatible with excitation at 488 nm by argon laser sources and its emission wavelength is in the range of 515-575 nm.
(§2) HEK-293 cells stably transfected with P2X7 receptor were seeded overnight in growth medium at 10,000 to 20,000 cells/well in 384-well plate. 24 hours later, the medium was removed, and the cells were pre-loaded at RT for 1 hour with 20 μL/w of Fluo-8 NW. Then 10 μL/w of test compounds and reference antagonist A438079 at 3×-concentration were injected with the FLIPRTETRA and the kinetic response over a period of five minutes was monitored. A second injection of 15 μL/w of 3× reference activator (Bz-ATP at EC80) was performed with the FLIPR TETRA and the signal of the emitted fluorescence was recorded for additional three minutes. All the experiment was carried out in a Low Divalent Cation Assay Buffer (0.3 mM Ca^2+ and 0 mM Mg^2+). The effect of the test compounds was measured as percent inhibition vs the reference antagonist and IC50 values were calculated accordingly. Here are reported the potency ranges as A, B, C and D, where A is <200 nM; B is 200 nM-1 μM, C is 1-10 μM, D is 10-30 μM.

mouseP2X7 = biological target: T2, mouseP2X7 (Mus musculus, UniProt Q9Z1M0); experiment: P2X7 channel calcium-influx assay (Fluo-8, FLIPR TETRA), mouse P2X7; conditions: HEK-293 cells stably transfected with P2X7; Bz-ATP at EC80; low divalent cation buffer; read-out: mouseP2X7 (activity range)
T2 construct: expressed in transfected cells; host or cells: HEK-293
T2 sequence (Q9Z1M0 1-595): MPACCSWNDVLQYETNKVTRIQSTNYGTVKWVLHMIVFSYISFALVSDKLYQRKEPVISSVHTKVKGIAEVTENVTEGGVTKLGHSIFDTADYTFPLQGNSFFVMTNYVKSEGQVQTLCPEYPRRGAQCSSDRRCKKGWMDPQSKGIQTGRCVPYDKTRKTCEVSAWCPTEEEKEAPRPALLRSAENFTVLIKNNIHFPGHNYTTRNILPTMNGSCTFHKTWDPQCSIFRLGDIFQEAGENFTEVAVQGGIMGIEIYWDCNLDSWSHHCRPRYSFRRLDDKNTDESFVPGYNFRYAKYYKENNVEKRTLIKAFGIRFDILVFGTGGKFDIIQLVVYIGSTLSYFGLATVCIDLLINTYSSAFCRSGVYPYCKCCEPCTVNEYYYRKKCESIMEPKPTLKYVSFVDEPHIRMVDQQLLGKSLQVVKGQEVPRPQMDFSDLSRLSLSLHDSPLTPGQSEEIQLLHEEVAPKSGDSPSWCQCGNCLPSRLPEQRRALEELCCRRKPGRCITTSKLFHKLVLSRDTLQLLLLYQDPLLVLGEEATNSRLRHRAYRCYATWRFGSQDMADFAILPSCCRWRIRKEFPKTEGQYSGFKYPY
Method: as §1, §2

humanP2X7 = biological target: T3, humanP2X7 (Homo sapiens, UniProt Q99572); experiment: P2X7 channel calcium-influx assay (Fluo-8, FLIPR TETRA), human P2X7; conditions: HEK-293 cells stably transfected with P2X7; Bz-ATP at EC80; low divalent cation buffer; read-out: humanP2X7 (activity range)
T3 construct: expressed in transfected cells; host or cells: HEK-293
T3 sequence (Q99572 1-595): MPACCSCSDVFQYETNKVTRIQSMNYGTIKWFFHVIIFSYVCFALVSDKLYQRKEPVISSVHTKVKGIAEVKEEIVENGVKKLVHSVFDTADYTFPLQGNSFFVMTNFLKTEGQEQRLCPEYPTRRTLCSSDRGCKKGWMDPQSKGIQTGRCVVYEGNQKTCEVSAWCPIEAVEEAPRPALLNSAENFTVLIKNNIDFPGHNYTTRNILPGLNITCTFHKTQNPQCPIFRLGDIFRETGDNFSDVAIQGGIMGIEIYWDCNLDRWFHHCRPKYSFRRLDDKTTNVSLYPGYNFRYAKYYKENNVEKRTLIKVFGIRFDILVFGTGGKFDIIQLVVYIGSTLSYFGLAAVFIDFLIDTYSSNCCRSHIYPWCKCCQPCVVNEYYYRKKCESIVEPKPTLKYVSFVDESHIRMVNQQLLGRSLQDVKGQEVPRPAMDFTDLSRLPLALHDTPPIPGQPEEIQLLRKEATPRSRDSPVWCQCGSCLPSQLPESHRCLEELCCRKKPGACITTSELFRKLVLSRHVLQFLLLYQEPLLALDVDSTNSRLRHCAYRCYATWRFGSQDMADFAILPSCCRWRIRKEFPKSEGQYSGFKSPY
Method: as §1, §2

human P2X7 channel = biological target: T4, human P2X7 channel (Homo sapiens, UniProt Q99572); experiment: human P2X7 channel assay by automated patch-clamp (QPatch 16X); conditions: HEK-293 cells expressing P2X7; current evoked by 100 microM BzATP; whole-cell, held at -80 mV; read-out: human Q-Patch (activity range)
T4 construct: expressed in transfected cells; host or cells: HEK-293
T4 sequence (Q99572 1-595): T3 sequence (Q99572 1-595)
Method: In order to directly monitor the block of P2X7 channel, an electrophysiological assay was developed and implemented on the QPatchl6X automated electrophysiology instrument.
HEK-293 cells expressing the P2X7 channels were cultured in modified EMEM.
72 hours before experiment, 5 million cells were seeded onto T225 flasks. Just before the experiment cells were washed twice, detached from the flask with trypsin-EDTA, re-suspended in the suspension solution and placed on the QPatch 16x.
The compounds (20 mM in a 100% DMSO) stored at −20° C. were prepared the day of the experiment (a first dilution 1:20 in 100% DMSO to prepare a 1 mM stock solution, then a 1 microM solution in external solution+a serial dilution 1:10).
The standard whole-cell voltage clamp experiments were performed at room temperature. From these experiments the multihole technology was used and the data were sampled at 2 KHz.
The intracellular solution contained (mM) 135 CsF, 10 NaCl, 1 EGTA, 10 HEPES, (pH 7.2 with CsOH) whereas the extracellular contained (mM) 145 NaCl, 4 KCl, 0.5 MgCl2, 1 CaCl2, 10 HEPES, 10 Glc (pH 7.4 with NaOH).
After establishment of the seal and the passage in the whole cell configuration, the cells were held at −80 mV. The P2XR7 current was evoked by applying 100 microM of BzATP alone (4 times) and then in the presence increasing concentrations of the compound under investigation (1, 10, 100 and 1000 nM).
The pre-incubation periods 5 to 8 contain increasing concentrations of the compound of interest (1, 10, 100 and 1000 nM), as illustrated in FIGURE (application protocol).
The maximal inward current evoked by BzATP in absence or presence of increasing concentrations of the compounds under investigation was measured and normalized. The potential […] effect was measured as % of control and as IC50 determined fitting the dose-response curves data with the following equation:
Here are reported the potency ranges as A, B, C and D, where A is <10 nM; B is 10 nM-100 nM, C is 0.1-1 μM, D is 1-10 μM.

Structure (SMILES) | IC50 (ratP2X7) [nM] | IC50 (mouseP2X7) [nM] | IC50 (humanP2X7) [nM] | IC50 (human P2X7 channel) [nM]
Cn1nc(Cc2c(F)cccc2Cl)n(CCN2CCOCC2)c1=O [Example 22, 5-(2-chloro-6-fluorobenzyl)-2-methyl-4-(2-morpholinoethyl)-2,4-dihydro-3H-1,2,4-triazol-3-one] | 10000 to 30000 | 10000 to 30000 | 10000 to 30000 | 1000 to 10000
Cn1nc(Cc2ccccc2C(F)(F)F)n(CC2CCCCC2(C)C)c1=O (stereo not drawn) [Example 23, 4-((2,2-dimethylcyclohexyl)methyl)-2-methyl-5-(2-(trifluoromethyl)benzyl)-2,4-dihydro-3H-1,2,4-triazol-3-one] | < 200 | 200 to 1000 | 200 to 1000 | 1000 to 10000
Cn1nc(CC2CCCCC2)n(Cc2c(F)cccc2Cl)c1=O [Example 24, 4-(2-chloro-6-fluorobenzyl)-5-(cyclohexylmethyl)-2-methyl-2,4-dihydro-3H-1,2,4-triazol-3-one] | < 200 | 1000 to 10000 | 200 to 1000 | 100 to 1000
Cn1nc(CC2CCCCC2)n(Cc2ccccc2C(F)(F)F)c1=O [Example 25, 5-(cyclohexylmethyl)-2-methyl-4-(2-(trifluoromethyl)benzyl)-2,4-dihydro-3H-1,2,4-triazol-3-one] | 1000 to 10000 | 10000 to 30000 | 1000 to 10000 | 100 to 1000
Cn1nc(Cc2ccccc2F)n(CC2CCC(F)(F)CC2)c1=O [Example 26, 4-((4,4-difluorocyclohexyl)methyl)-5-(2-fluorobenzyl)-2-methyl-2,4-dihydro-3H-1,2,4-triazol-3-one] | < 200 | 1000 to 10000 | 200 to 1000 | 100 to 1000
Cn1nc(Cc2ccccc2F)n(CC2CCCCC2)c1=O [Example 27, 4-(cyclohexylmethyl)-5-(2-fluorobenzyl)-2-methyl-2,4-dihydro-3H-1,2,4-triazol-3-one] | < 200 | 1000 to 10000 | 1000 to 10000 | 1000 to 10000
